# Species: Rattus norvegicus
# Experiment: Inhibition of rat recombinant geranylgeranyltransferase type I expressed in Escherichia coli assessed as residual enzyme activity for geranylgeranylation of K-Ras4B at 50 uM incubated for 30 mins in presence of [3H]GGPP by scintillation counting assay relative to control
row,Activity,SMILES
1,92.9%,Cc1ccc([C@@H]2C[C@@H](SCCC(C)C)[C@H](C(=O)O)CN2S(=O)(=O)c2ccc(C)cc2)cc1
2,103%,COc1ccc([C@@H]2C[C@@H](Sc3ccccc3)[C@H](C(=O)O)CN2S(=O)(=O)c2ccccc2)cc1
3,80.8%,COc1ccc(S[C@@H]2C[C@@H](c3ccc(OC)cc3)N(S(=O)(=O)c3ccc(Cl)cc3)C[C@H]2C(=O)O)cc1
4,50.4%,CS(=O)(=O)N1[C@@H](c2cccc(Br)c2)C(C(=O)O)=CC[C@H]1c1ccc(Cl)cc1
5,46.3%,C=CCS[C@@H]1C[C@@H](c2cccc(Cl)c2)N(S(=O)(=O)c2ccc(C)cc2)C[C@H]1C(=O)O
6,72.1%,Cc1ccc(S(=O)(=O)N2C[C@@H](C(=O)O)[C@H](SC3CCCC3)C[C@H]2c2cccc(Br)c2)cc1
7,58.4%,Cc1ccc(S(=O)(=O)N2C[C@@H](C(=O)O)[C@H](SCCC(C)C)C[C@H]2c2ccccc2F)cc1
8,45.5%,Cc1cccc([C@H]2C(C(=O)O)=CC[C@@H](c3ccc(Cl)cc3)N2S(C)(=O)=O)c1
9,78.8%,CCCS[C@@H]1C[C@@H](c2cccc(Cl)c2)N(S(=O)(=O)c2ccc(C)cc2)C[C@H]1C(=O)O
10,53.1%,C=CCS[C@@H]1C[C@@H](c2ccccc2F)N(S(=O)(=O)c2ccc(C)cc2)C[C@H]1C(=O)O
11,51.1%,Cc1ccc([C@@H]2C[C@@H](SCc3ccc(Cl)cc3)[C@H](C(=O)O)CN2S(C)(=O)=O)cc1
12,64.8%,Cc1ccc(S(=O)(=O)N2[C@@H](c3ccc(Cl)cc3)C(C(=O)O)=CC[C@H]2c2ccc(F)cc2)cc1
13,89.3%,COc1ccc([C@@H]2CC=C(C(=O)O)[C@H](c3ccc(C)cc3)N2S(=O)(=O)c2ccc(C)cc2)cc1OC
14,69%,CCCS[C@@H]1C[C@@H](c2ccc(CC)cc2)N(S(=O)(=O)c2ccc(C)cc2)C[C@H]1C(=O)O
15,94.8%,CCS[C@@H]1C[C@@H](c2ccc(C)cc2)N(S(C)(=O)=O)C[C@H]1C(=O)O
16,71.2%,Cc1ccc(S(=O)(=O)N2[C@@H](c3ccc(F)cc3)C(C(=O)O)=CC[C@H]2c2cccc(C)c2)cc1
17,105%,COc1ccc([C@@H]2C[C@@H](SCc3ccccc3)[C@H](C(=O)O)CN2S(=O)(=O)c2ccc(C)cc2)cc1
18,56.8%,Cc1ccc(S(=O)(=O)N2C[C@@H](C(=O)O)[C@H](SCC(C)C)C[C@H]2c2ccccc2F)cc1
19,81.4%,COC(=O)c1ccccc1S(=O)(=O)N1[C@@H](c2ccc(Cl)cc2)C(C(=O)O)=CC[C@H]1c1ccc(C)cc1
20,69.3%,COc1ccc([C@@H]2CC=C(C(=O)O)[C@H](c3cccc(F)c3)N2S(=O)(=O)c2ccc(Cl)cc2)cc1
21,74%,COc1ccc([C@@H]2CC=C(C(=O)O)[C@H](c3ccc(Br)cc3)N2S(=O)(=O)c2ccc(C)cc2)cc1OC
22,81.8%,Cc1ccc(S(=O)(=O)N2[C@@H](c3cccc(F)c3)C(C(=O)O)=CC[C@H]2c2cccs2)cc1
23,39.1%,Cc1ccc(S(=O)(=O)N2[C@@H](c3cccc(Br)c3)C(C(=O)O)=CC[C@H]2c2cccc(C)c2)cc1
24,75%,Cc1ccc(S(=O)(=O)N2[C@@H](c3cccc(F)c3)C(C(=O)O)=CC[C@H]2c2ccccc2F)cc1
25,50.7%,C=CCS[C@@H]1C[C@@H](c2ccc(C)cc2)N(S(=O)(=O)c2ccccc2)C[C@H]1C(=O)O
26,94.5%,COc1ccc([C@@H]2C[C@@H](SC3CCCC3)[C@H](C(=O)O)CN2S(=O)(=O)c2ccccc2)cc1

row,Activity,SMILES
1,71.6%,CCOc1ccc([C@@H]2CC=C(C(=O)O)[C@H](c3ccc(Cl)cc3)N2S(=O)(=O)c2ccc(C)cc2)cc1
2,69.8%,Cc1ccc([C@@H]2CC=C(C(=O)O)[C@H](c3cccc(C)c3)N2S(=O)(=O)c2ccccc2)cc1
3,87.5%,COc1ccc([C@@H]2CC=C(C(=O)O)[C@H](c3cccc(F)c3)N2S(=O)(=O)c2ccc(C)cc2)cc1
4,99.4%,CCCS[C@@H]1C[C@@H](c2ccc(C)cc2)N(S(=O)(=O)c2ccccc2C)C[C@H]1C(=O)O
5,110%,CC(=O)C1=CC[C@@H](c2ccc(C)cc2)N(S(=O)(=O)c2ccccc2[N+](=O)[O-])C1
6,67.2%,COc1ccc([C@@H]2CC=C(C(=O)O)[C@H](c3ccc(F)cc3)N2S(=O)(=O)c2ccc(Cl)cc2)cc1
7,91.4%,COc1ccc([C@@H]2CC=C(C(=O)O)[C@H](c3ccc(Cl)cc3)N2S(=O)(=O)c2ccc(C)cc2)cc1
8,95%,CCS[C@@H]1C[C@@H](c2ccc(C)cc2)N(S(=O)(=O)c2ccccc2)C[C@H]1C(=O)O
9,66%,COc1ccc([C@@H]2C[C@@H](SCc3ccc(C(C)(C)C)cc3)[C@H](C(=O)O)CN2S(=O)(=O)c2ccc(Cl)cc2)cc1
10,67.7%,COc1ccc([C@@H]2CC=C(C(=O)O)[C@H](c3ccc(F)cc3)N2S(=O)(=O)c2ccccc2)cc1
11,55.3%,COc1cccc([C@@H]2CC=C(C(=O)O)[C@H](c3cccc(Br)c3)N2S(=O)(=O)c2ccc(C)cc2)c1
12,37.4%,Cc1ccc(S(=O)(=O)N2C[C@@H](C(=O)O)[C@H](SCc3ccc(Cl)cc3)C[C@H]2c2ccc3c(c2)OCO3)cc1
13,61.1%,CCOc1ccc([C@@H]2C[C@@H](Sc3ccccc3)[C@H](C(=O)O)CN2S(=O)(=O)c2ccc(C)cc2)cc1
14,88.9%,CCCS[C@@H]1C[C@@H](c2ccc(OC)cc2)N(S(=O)(=O)c2ccc(C)cc2)C[C@H]1C(=O)O
15,93.6%,Cc1ccc(S(=O)(=O)N2C[C@@H](C(=O)O)[C@H](SC3CCCC3)C[C@H]2c2ccccc2)cc1
16,78.3%,Cc1ccc([C@@H]2C[C@@H](SCC(C)C)[C@H](C(=O)O)CN2S(=O)(=O)c2ccccc2C)cc1
17,75.7%,Cc1ccc([C@H]2C(C(=O)O)=CC[C@@H](c3ccc4c(c3)OCO4)N2S(=O)(=O)c2ccc(C)cc2)cc1
18,57.7%,O=C(O)C1=CC[C@@H](c2ccc(Cl)cc2)N(S(=O)(=O)c2ccc(Cl)cc2)[C@H]1c1ccc(Cl)cc1
19,46.9%,Cc1ccc(S(=O)(=O)N2[C@@H](c3cccc(C)c3)C(C(=O)O)=CC[C@H]2c2cccc(Cl)c2)cc1
20,82.1%,CS(=O)(=O)N1[C@@H](c2ccc(Cl)cc2)C(C(=O)O)=CC[C@H]1c1ccccc1
21,72.1%,COc1ccc([C@@H]2CC=C(C(=O)O)[C@H](c3ccc(Br)cc3)N2S(=O)(=O)c2ccc(C)cc2)cc1
22,88.3%,Cc1ccc([C@H]2C(C(=O)O)=CC[C@@H](c3ccc(C)cc3)N2S(=O)(=O)c2ccccc2C)cc1
23,75.4%,CCc1ccc([C@@H]2CC=C(C(=O)O)[C@H](c3cccc(Br)c3)N2S(=O)(=O)c2ccc(C)cc2)cc1
24,91.3%,Cc1ccc(S[C@@H]2C[C@@H](c3ccc(C)cc3)N(S(=O)(=O)c3ccccc3)C[C@H]2C(=O)O)cc1
25,83.2%,CCCS[C@@H]1C[C@@H](c2ccc(C)cc2)N(S(=O)(=O)c2ccc(Cl)cc2)C[C@H]1C(=O)O
26,94.8%,CCCCCS[C@@H]1C[C@@H](c2ccc(OC)cc2)N(S(=O)(=O)c2ccccc2)C[C@H]1C(=O)O

row,Activity,SMILES
1,87.5%,CCOc1ccc([C@@H]2CC=C(C(=O)O)[C@H](c3cccc(F)c3)N2S(=O)(=O)c2ccc(C)cc2)cc1
2,40.7%,COc1ccc([C@@H]2C[C@@H](SCc3ccc(Cl)cc3)[C@H](C(=O)O)CN2S(=O)(=O)c2ccc(C)cc2)cc1
3,64.4%,Cc1ccc([C@@H]2CC=C(C(=O)O)[C@H](c3cccc(Cl)c3)N2S(C)(=O)=O)cc1
4,99%,Cc1ccc(S(=O)(=O)N2C[C@@H](C(=O)O)[C@H](SCc3ccc(C(C)(C)C)cc3)C[C@H]2c2cccc(Cl)c2)cc1
5,56.1%,Cc1ccc(S(=O)(=O)N2[C@@H](c3ccc(C(C)(C)C)cc3)C(C(=O)O)=CC[C@H]2c2cccc(C)c2)cc1
6,83.5%,Cc1ccc([C@@H]2C[C@@H](SCC(C)C)[C@H](C(=O)O)CN2S(=O)(=O)c2ccc(C)cc2)cc1
7,81.5%,CCCCS[C@@H]1C[C@@H](c2ccc(Cl)cc2)N(S(=O)(=O)c2ccc(C)cc2)C[C@H]1C(=O)O
8,55%,CS(=O)(=O)N1[C@@H](c2ccc(Cl)cc2)C(C(=O)O)=CC[C@H]1c1ccc(Cl)cc1
9,88.5%,CCCS[C@@H]1C[C@@H](c2cccc(Br)c2)N(S(=O)(=O)c2ccc(C)cc2)C[C@H]1C(=O)O
10,105%,Cc1ccc([C@@H]2C[C@@H](Sc3ccc(Cl)cc3)[C@H](C(=O)O)CN2S(C)(=O)=O)cc1
11,70.2%,COc1ccc([C@@H]2C[C@@H](SCC(C)C)[C@H](C(=O)O)CN2S(=O)(=O)c2ccccc2)cc1
12,86.3%,CCCCS[C@@H]1C[C@@H](c2ccccc2F)N(S(=O)(=O)c2ccc(C)cc2)C[C@H]1C(=O)O
13,87%,CCc1ccc([C@@H]2CC=C(C(=O)O)[C@H](c3ccc(C)cc3)N2S(=O)(=O)c2ccc(C)cc2)cc1
14,90.6%,Cc1ccc([C@H]2C(C(=O)O)=CC[C@@H](c3ccc(Cl)cc3)N2S(C)(=O)=O)cc1
15,74.3%,Cc1ccc(S(=O)(=O)N2[C@@H](c3ccc(C(C)(C)C)cc3)C(C(=O)O)=CC[C@H]2c2ccc(Cl)c(Cl)c2)cc1
16,54.5%,COc1ccc([C@@H]2C[C@@H](SCc3ccccc3)[C@H](C(=O)O)CN2S(=O)(=O)c2ccc(C)cc2)cc1OC
17,108%,Cc1ccc(S[C@@H]2C[C@@H](c3ccc(C)cc3)N(S(C)(=O)=O)C[C@H]2C(=O)O)cc1
18,78.4%,CCOc1ccc([C@@H]2CC=C(C(=O)O)[C@H](c3cccc(Br)c3)N2S(=O)(=O)c2ccc(C)cc2)cc1
19,88.3%,Cc1ccc(S(=O)(=O)N2[C@@H](c3ccc(C(C)(C)C)cc3)C(C(=O)O)=CC[C@H]2c2ccc(C(C)C)cc2)cc1
20,75.6%,Cc1ccc(S(=O)(=O)N2[C@@H](c3cccc(F)c3)C(C(=O)O)=CC[C@H]2c2cccc(C)c2)cc1
21,100%,Cc1ccc([C@@H]2C[C@@H](SC3CCCC3)[C@H](C(=O)O)CN2S(=O)(=O)c2ccccc2)cc1
22,83.6%,CCCS[C@@H]1C[C@@H](c2ccc3c(c2)OCO3)N(S(=O)(=O)c2ccc(C)cc2)C[C@H]1C(=O)O
23,91.4%,C=CCS[C@@H]1C[C@@H](c2ccc(C)cc2)N(S(C)(=O)=O)C[C@H]1C(=O)O
24,74.3%,C=CCS[C@@H]1C[C@@H](c2ccc(C)cc2)N(S(=O)(=O)c2ccc(Cl)cc2)C[C@H]1C(=O)O
25,68.9%,Cc1ccc(S(=O)(=O)N2[C@@H](c3cccc(C)c3)C(C(=O)O)=CC[C@H]2c2cccs2)cc1
26,32.6%,O=C(O)C1=CC[C@@H](c2ccc(Cl)cc2)N(S(=O)(=O)c2ccc(Cl)cc2)[C@H]1c1ccc(Br)cc1
